Test system: colon cancer cell line HCT116
Experiment: Proliferation rate of HCT116 in culture with drug
Assay type: cell-based, human
Conditions: cultured for 2 days
Experimental: The human-derived cancer cells used were a colon cancer cell line HCT116, a melanoma cell line A375 (used only in the tunicamycin combination test group), a lung cancer cell line A549 (used only in the tunicamycin combination test group), and a prostate cancer cell line DU145 (used only in the tunicamycin combination test group). On a 6-well plate, the human-derived cancer cells were cultured for 1 day in the presence of tunicamycin for the tunicamycin combination test group, and cultured for 2 days in the presence of the relevant drug used in combination for the fluorouracil combination test group and the irinotecan combination test group. The concentration of the drug used in combination was set to a concentration that decreased the proliferation rate of the cancer cells by about half at the completion of culture. […] As a control, a test group without a drug used in combination was established. In the control group, only DMSO (dimethyl sulfoxide), a solvent for the drug used in combination, was added to the cancer cells at a final concentration of 0.1% (v/v), and then the cancer cells were cultured for 2 days.

SMILES: O=c1[nH]cc(F)c(=O)[nH]1 [fluorouracil]
- concentration that decreased the proliferation rate of the cancer cells by about half at the completion of culture: 0.4 µg/mL
